Assay results taken from US4992455A, “Thiazolidin-4-one derivatives useful for treating diseases caused by platelet activating factor” (Sumitomo Pharmaceuticals Company, Limited, priority 1987, dated 1991).
In brackets after ≈: the same amount, converted by molar mass.

Each molecule was assayed on PAF-induced rabbit platelet aggregation (assay: Inhibition of PAF-induced rabbit platelet aggregation (in vitro, platelet-rich plasma)). Details: Oryctolagus cuniculus, rabbit PRP, 37° C., final PAF concentration 0.005 μ1/ml [sic].
Assay type: cell-based
Procedure: The inhibition of PAF-induced platelet aggregation was examined by using a platelet-rich plasma (PRP) of rabbit according to the method of Mustard et al. [J.F. Mustard et al., J. Lab. Clin. Med., 64, 548 (1964)], which is an improvement of the method of Born [G.V.R. Born, J. Physiol., London, 162, 67 (1962)]. That is, 80-100 ml of blood per animal was collected from carotid arteries of male rabbits of the Japanese white breed without anesthesia into a polyethylene vessel containing 1/10 the volume of a 3.8% sodium citrate solution. A portion (about 3 ml) of the collected blood was centrifuged at a high speed (11,000 rpm) for 60 seconds, giving a platelet-poor plasma (PPP) as supernatant. The remainder of the blood was centrifuged at a low speed (1000 rpm) for 10 minutes, giving a platelet-rich plasma (PRP) as supernatant.
The degree of platelet aggregation was determined by nephelometry with an aggregometer (Hematracer, Niko Bioscience Co.) while stirring the PRP at 1000 rpm at 37° C. The platelet aggregation activity was expressed in terms of the light transmittance (%), the value of PRP being taken as 0% and the value of PPP as 100%. A portion (0.2 ml) of the PRP was placed in a glass cuvette containing a silicone-treated stirring iron rod, and 2 µl of dimethylsulfoxide was added. AFter 2 minutes, PAF dissolved in 0.25% BSA physiological saline was added to give a final PAF concentration of 0.005 μ1/ml, and the maximum aggregation was determined. To examine the inhibitory activity of test compounds on the platelet aggregation caused by PAF, 2 µl of a dimethylsulfoxide solution of each test compound was added in place of the dimethylsulfoxide. The percentage inhibition by the test compound of PAF-induced platelet aggregation was calculated according to the following equation and the value of IC50 was determined. [formula]

| SMILES | IC50 [µg/mL] |
| --- | --- |
| COc1ccc(CCN2C(=O)[C@@H](C)S[C@@H]2c2cccnc2)cc1OC (relative stereo) [compound 37] | 0.7 (≈ 1.95 µM) |
| C[C@H]1S[C@H](c2cccnc2)N(CC(=O)OC(C)(C)C)C1=O (relative stereo) [Compound No. 15, 3-t-butyloxycarbonylmethyl-5-methyl-2-(3-pyridyl)thiazolidin-4-one] | 2.6 (≈ 8.43 µM) |
| CCCCC1SC(c2cccnc2)N(C)C1=O (centres unmarked) [compound 7, 5-butyl-3-methyl-2-(3-pyridyl)-thiazolidin-4-one] | 2 (≈ 7.99 µM) |
| CN1C(=O)C(C)(C)SC1c1cccnc1 (centres unmarked) [compound 8, 5,5,3-trimethyl-2-(3-pyridyl)-thiazolidin-4-one] | 3.6 (≈ 16.2 µM) |
| CCCCCCCCC[C@H]1S[C@H](c2cccnc2)N(C)C1=O (relative stereo) [compound 49] | 2.4 (≈ 7.49 µM) |
| CN(C)CCN1C(=O)[C@@H](CCCO[Si](C)(C)C(C)(C)C)S[C@H]1c1cccnc1 (relative stereo) [compound 170] | 0.052 (≈ 0.123 µM) |
| C[C@H]1S[C@@H](c2cccnc2)N(C)C1=O (single isomer, unassigned) [compound 178, (+)-cis-3,5-dimethyl-2-(3-pyridyl)-thiazolidin-4-one] | 1.5 (≈ 7.2 µM) |
| CCCC1SC(c2cccnc2)N(C)C1=O (centres unmarked) [compound 43] | 1.2 (≈ 5.08 µM) |
| CCCCCCC[C@H]1S[C@H](c2cccnc2)N(CCN(C)C)C1=O (relative stereo) [compound 75] | 0.06 (≈ 0.172 µM) |
| CCCCCCCCC[C@H]1S[C@@H](c2cccnc2)N(C)C1=O (relative stereo) [compound 50] | 4.6 (≈ 14.4 µM) |
| CCN1C(=O)C(C)SC1c1cccnc1 (centres unmarked) [compound 30] | 4.2 (≈ 18.9 µM) |
| CCC1SC(c2cccnc2)N(CCN(C)C)C1=O (centres unmarked) [compound 24, 5-ethyl-3-(2-dimethylaminoethyl)-2-(3-pyridyl)thiazolidin-4-one] | 2 (≈ 7.16 µM) |
| CCC1SC(c2cccnc2)N(C)C1=O (centres unmarked) [compound 42] | 2.5 (≈ 11.2 µM) |
| CCCCCC1SC(c2cccnc2)N(C)C1=O (centres unmarked) [compound 46] | 1.9 (≈ 7.19 µM) |

Further lines, results first:

| IC50 [µg/mL] | SMILES |
| --- | --- |
| 0.6 (≈ 1.48 µM) | CCCCCCCCCCC[C@H]1S[C@@H](c2cccnc2)N(CCN(C)C)C1=O (relative stereo) [compound 82] |
| 0.034 (≈ 0.0935 µM) | CCCCCCCC[C@H]1S[C@H](c2cccnc2)N(CCN(C)C)C1=O (relative stereo) [compound 77] |
| 2.4 (≈ 7.11 µM) | CC(C)OCCC1SC(c2cccnc2)N(CCN(C)C)C1=O (centres unmarked) [compound 154] |
| 4.2 (≈ 12.6 µM) | CN(C)CCN1C(=O)C(CC(F)(F)F)SC1c1cccnc1 (centres unmarked) [compound 171] |
| 0.16 (≈ 0.404 µM) | CC(C)COCCOCC[C@H]1S[C@H](c2cccnc2)N(CCN(C)C)C1=O (relative stereo) [compound 150] |
| 4.2 (≈ 15.8 µM) | C[C@H]1S[C@@H](c2cccnc2)N(CCN(C)C)C1=O (relative stereo) [compound 128] |
| 0.05 (≈ 0.128 µM) | CCCCCCCCCC[C@H]1S[C@H](c2cccnc2)N(CCN(C)C)C1=O (relative stereo) [compound 79] |
| 4.2 (≈ 8.08 µM) | CN(C)CCN1C(=O)C(CCOCc2ccccc2)(CCOCc2ccccc2)SC1c1cccnc1 (centres unmarked) [compound 130] |
| 5 (≈ 24 µM) | C[C@@H]1S[C@@H](c2cccnc2)N(C)C1=O (single isomer, unassigned) [compound 181, (+)-trans-3,5-dimethyl-2-(3-pyridyl)-thiazolidin-4-one] |
| 0.24 (≈ 0.781 µM) | CCCC[C@H]1S[C@H](c2cccnc2)N(CCN(C)C)C1=O (relative stereo) [compound 69] |
| 0.27 (≈ 0.643 µM) | CCCCCCCCCCCC[C@H]1S[C@H](c2cccnc2)N(CCN(C)C)C1=O (relative stereo) [compound 83] |
| 0.15 (≈ 0.379 µM) | CCCCOCCOCC[C@H]1S[C@H](c2cccnc2)N(CCN(C)C)C1=O (relative stereo) [compound 135] |
| 1.4 (≈ 4.18 µM) | CCCCCCCCCCC1SC(c2cccnc2)N(C)C1=O (centres unmarked) [compound 51] |
| 0.32 (≈ 0.995 µM) | CCCCC[C@H]1S[C@H](c2cccnc2)N(CCN(C)C)C1=O (relative stereo) [compound 71] |
| 0.14 (≈ 0.363 µM) | CN(C)CCN1C(=O)[C@@H](CCOCc2ccccc2)S[C@@H]1c1cccnc1 (relative stereo) [compound 131] |
